Counter-ions that a name gives are not always drawn. Like-named read-outs stand apart in the source and are kept apart here.
Key:
[1] = system: beige adipocytes; assay: Lipolysis validation assays of primary hits at three concentrations; type: cell-based, human; design: % of Control (1) / % of Control (2) / % of Control (3) / % of Control (4): unit of the concentration uncertain; conditions: for activity at 2.2 µM / activity at 6.7 µM / activity at 20 µM / activity at 2200 µM: Homo sapiens, Adipocyte, 24 h; for activity at 2.2 µM: Conc. 2.2 µM; for activity at 6.7 µM: Conc. 6.7 µM; for activity at 20 µM: Conc. 20 µM; for activity at 2200 µM: Conc. 2.2 mM
Experimental: ADSCs were seeded at 5000 cell/cm^2 in 12-well plates, grown for 5 days and then induced to differentiate into GC for 20 days. Prior to the assay, cells were washed in DPBS twice and then incubated with DMEM with 2% fatty-acid free BSA (Santa Crus, sc-500949) and Triascin C (5 μM). Cells were treated with forskolin (20 μM) for indicated time periods and supernatant samples were collected. Lipolysis assay was performed with free glycerol reagent (Sigma, F6428-40ML), according to manufacturer instructions.
Lipolysis assays were performed after 24 hours of drug treatment by measuring free glycerol released in the 384-well format, using the procedure described above. Absorbance for each compound was normalized to untreated control samples for each plate and calculated as a percent of the control. Cut-offs for “activating” and “inhibiting” compounds were set at 2-fold. Validation assays were performed for select compounds at a range of concentration doses.
Next, lipolysis assays were performed for all 111 compounds identified in the primary screen at three different concentrations, of which twenty-four were selected for further analysis based on their newness and/or reproducibility.

[2] = system: UCP1; assay: Secondary screen, UCP1 transcript levels by qRT-PCR; type: cell-based, human; conditions: secondary screen of primary hits
Excerpt: FIG. 8A is a scheme used for high-throughput screening (HTS). FIG. 8B is a scatter-plot of glycerol release for each compound assayed (n=3889) in an HTS screen. Data are shown as the percentage of glycerol released compared to untreated beige adipocytes (% of control). FIG. 8C is a computational analysis of preliminary hits identified in the HTS using BiNChE. FIG. 8D is a plot showing the results of a secondary hit validation of primary compounds performed by evaluating levels of UCP1 transcript by qRT-PCR. Unstimulated beige cells, selected adrenergic agonists, and potential new non-adrenergic beige fat activators identified in the primary screen are shown. Transcript levels were normalized to UCP1 levels in ADSCs, n=3 for each technical 20 replicate. *P<0.0.05, **P<0.01, ***P<0.005. FIGS. 8E and 8F are bar graphs showing secondary screening of known thermogenic activators. Transcript levels of UCP1 were assayed in unstimulated ADSCs and ADSC-derived beige adipocytes and following treatment with forskolin (FSK, 20 μM), isoproterenol (1, 10 μM) (8E) and Mirabegron (1, 10 and 25 μM) (8F). Transcript levels were determined by qRT-PCR. n=3 for each independent replicate. Data are mean+/−standard deviation. *P<0.0.05, **P<0.01.
Cells were washed with DPBS, lysed directly on the plate and used for RNA isolation with the E.Z.N.A Total RNA Kit (Omega, R6834-02) according to manufacturer instructions. RNA quantitation was performed with the Biotek Synergy 2 plate reader and cDNA was synthesized using 1 ug of RNA with the iScript cDNA Synthesis Kit (Bio-Rad, 1708841). The qRT-PCR was performed on a ViiA7 Real-Time PCR System (ThermoFisher) using a TaqMan Universal PCR Master Mix (ThermoFisher, 4324020) according to manufacturer instructions with the following TaqMan primer/probe sets (UCP1, Hs01084772_m1), DIO2, Hs00988260_ml, 18S rRNA, Hs03928985_g1). Each assay was performed in triplicate and normalized to 18S rRNA and graphed as mean+/−standard deviation.
To determine if hits identified in the first-round screen activated the thermogenic program, UCP1 transcript levels were used as a readout. This secondary screen incorporated adrenergic agonists, such as Mirabegron, isoproterenol and phenylephrine, and eighteen additional compounds with no reported function in thermogenic regulation (FIG. 8D, 8E, 8F). 18/25 (72%) of the lipolysis-activating compounds identified in the primary screen also activate the thermogenic program through UCP1. Twelve of these compounds have no reported adrenergic agonist activity and could potentially operate through different signaling mechanisms (FIG. 8D and Table 9).

SMILES	% of Control (1) ([1]; Conc. 2.2 (unit uncertain))	% of Control (2) ([1]; Conc. 2.2 (unit uncertain))	% of Control (3) ([1]; Conc. 2.2 (unit uncertain))	% of Control (4) ([1]; Conc. 2.2 (unit uncertain))	% of Control (1) ([1]; Conc. 6.7 (unit uncertain))	% of Control (2) ([1]; Conc. 6.7 (unit uncertain))	% of Control (3) ([1]; Conc. 6.7 (unit uncertain))	% of Control (4) ([1]; Conc. 6.7 (unit uncertain))	% of Control (1) ([1]; Conc. 20 (unit uncertain))	% of Control (2) ([1]; Conc. 20 (unit uncertain))	% of Control (3) ([1]; Conc. 20 (unit uncertain))	% of Control (4) ([1]; Conc. 20 (unit uncertain))	Activation of the thermogenic program (UCP1 transcript), in words [2]	activity at 2.2 µM ([1]; read-out: % of Control (2)) [%]	activity at 2.2 µM ([1]; read-out: % of Control (4)) [%]	activity at 6.7 µM ([1]; read-out: % of Control (1)) [%]	activity at 6.7 µM ([1]; read-out: % of Control (2)) [%]	activity at 6.7 µM ([1]; read-out: % of Control (3)) [%]	activity at 6.7 µM ([1]; read-out: % of Control (4)) [%]	activity at 20 µM ([1]; read-out: % of Control (1)) [%]	other results
CC1(C)C(=O)N(CCN2CCC(C(=O)c3ccc(F)cc3)CC2)c2ccccc21 [LY-310, 762]	179.4 % of Control	180.24 % of Control	180.44 % of Control	143.79 % of Control	179.76 % of Control	199.88 % of Control	222.09 % of Control	289.77 % of Control	264.29 % of Control	223.06 % of Control	225.27 % of Control	201.38 % of Control	activators in both rounds of screening	–	–	–	–	–	–	–	–
COc1ccc(-c2cc3c(C)nc(N)nc3n([C@H]3CC[C@H](OCCO)CC3)c2=O)cn1 [PF-04691502]	171.55 % of Control	138.35 % of Control	232.86 % of Control	105.98 % of Control	257.98 % of Control	216.59 % of Control	225.05 % of Control	155.98 % of Control	304.52 % of Control	224.71 % of Control	171.76 % of Control	302.07 % of Control	activators in both rounds of screening	–	–	–	–	–	–	–	–
Cc1ccc([N+](=O)[O-])cc1S(=O)(=O)N(C)/N=C/c1cnc2ccc(Br)cn12 [PIK-75]	197.74 % of Control	134.71 % of Control	183.08 % of Control	136.9 % of Control	280.95 % of Control	197.53 % of Control	165.05 % of Control	207.93 % of Control	158.45 % of Control	244.82 % of Control	198.79 % of Control	233.79 % of Control	activators in both rounds of screening	–	–	–	–	–	–	–	–
CC[C@@H]1C(=O)OC[C@@H]1Cc1cncn1C [Pilocarpine nitrate]	–	–	–	–	–	–	–	–	–	–	–	–	activators in both rounds of screening	135	89.8	220	260	167	84.2	200	activity at 20 µM ([1]; read-out: % of Control (2)): 290%; activity at 20 µM ([1]; read-out: % of Control (3)): 230%; activity at 20 µM ([1]; read-out: % of Control (4)): 181%; activity at 2200 µM ([1]; read-out: % of Control (1)): 109%; activity at 2200 µM ([1]; read-out: % of Control (3)): 176%
Cc1cc(C)c(/C=C2\C(=O)Nc3ccccc32)[nH]1 [SU 5416]	–	–	–	–	–	–	–	–	–	–	–	–	activators in both rounds of screening	379	232	349	366	251	238	283	activity at 20 µM ([1]; read-out: % of Control (2)): 267%; activity at 20 µM ([1]; read-out: % of Control (3)): 233%; activity at 20 µM ([1]; read-out: % of Control (4)): 246%; activity at 2200 µM ([1]; read-out: % of Control (1)): 281%; activity at 2200 µM ([1]; read-out: % of Control (3)): 214%
COc1cc2c(cc1OC)-c1c/c(=N\c3c(C)cc(C)cc3C)n(C)c(=O)n1CC2 [Trequinsin HCl]	–	–	–	–	–	–	–	–	–	–	–	–	efficacy in beige cell activation	251	244	271	264	232	215	284	activity at 20 µM ([1]; read-out: % of Control (2)): 292%; activity at 20 µM ([1]; read-out: % of Control (3)): 256%; activity at 20 µM ([1]; read-out: % of Control (4)): 248%; activity at 2200 µM ([1]; read-out: % of Control (1)): 240%; activity at 2200 µM ([1]; read-out: % of Control (3)): 188%

Source: US20220079993A1, “NON-NATURALLY OCCURRING THERMOGENIC ADIPOCYTES, METHODS OF MAKING, AND METHODS OF USE THEREOF” (University of Georgia Research Foundation, Inc., priority 2019, published 2022)
